Test results as given in publication PMC4350332 (Oncotarget, 2014).
pIC50: −log10 of the molar value.

Experiments:
[1] = test system: panel of 97 kinases; assay: scanEDGE kinase selectivity screen (DiscoverX); format: binding; conditions: 10 μM
From the text: A proprietary active site-directed competition binding assay was employed to quantitatively measure interactions between test compounds and the individual kinases on the panel. Results were expressed as a percentage of control binding, with 0% indicating complete binding of the test compound.

[2] = test system: PDC activity in K562 cells; assay: Cellular PDC activity assay, K562; format: cell-based; conditions: 20 μM VER-246608 or […] Nov3r
Protocol: Cellular PDC activity was determined using a commercial assay kit (Abcam) as per the manufacturer's instructions. Briefly, PC-3 and K562 cell suspensions at a density of 1×10^6 and 1.5×10^6, respectively, were transferred to 96 well plates (250 μL per well). Cells were pre-treated with compound or DMSO for 1 h in a CO2incubator at 37°C followed by cell lysis in 250 μL of a 9:1 dilution of assay kit detergent (containing 20 mM NaF and 40 μM of the PDK inhibitor VER-246550) for 10 min on ice. The cellular debris was then pelleted at 1000g for 10 min. A 200 μL aliquot of each lysate was then transferred to the immunocapture microplate. PDC reaction rates were determined from the slope of the reaction curves and expressed as a percentage of the vehicle (DMSO) control values. […]
(§1) transformed and additional cancer cell lines. A, The indicated cell lines were seeded into […]
(§2) relevant media containing either 2 g/L D-glucose or D-galactose for 96 h. Cell mass was determined using the sulforhodamine B assay. Results are expressed as the percentage change vs DMSO control values for cells incubated in D-glucose containing media. […]
analysis of pyruvate dehydrogenase (PDH) activity in cell lysates using a commercially available ELISA-based assay kit (Abcam). Results are expressed as a percentage of the PDH reaction rate in DMSO treated cells. […]

[3] = test system: PC-3 cells; assay: Metabolite analysis (L-lactate, D-glucose, pyruvate, L-alanine) in PC-3 cells; format: cell-based; conditions: for Reduction in media L-lactate levels: 1 h; for Intracellular pyruvate levels: 24 h
Protocol: Pyruvate, L-lactate, D-glucose and L-alanine levels were determined using commercially available assay kits (Abcam) as per the manufacturer's instructions.

[4] = test system: hTert immortalized human foreskin fibroblast (HFF) cell line; assay: Glycolytic activity (L-lactate, D-glucose) in HFF cells; format: cell-based; conditions: 6 h, 0.25 g/L D-glucose, 2% dialyzed FCS; VER-246608 effect only at top concentration (27 μM)
Protocol: Pyruvate, L-lactate, D-glucose and L-alanine levels were determined using commercially available assay kits (Abcam) as per the manufacturer's instructions. […]
as §1
as §2, with “media. B, HFF cells were seeded into 96 well plates at a density of 1x10^4 cells per well in 96 well plates.” for “media.”
and Nov3r (in DMEM media containing 0.25 g/L D-glucose and 2% dialyzed FCS) for 6 h, followed by the removal of cell culture media for analysis of L-lactate and D-glucose. At the end of the experiment the remaining media was aspirated and the cells transferred to a - 80 °C freezer for subsequent analysis of p(Ser293)E1α levels by MSD ELISA. C. K562 cells […]
analysis of pyruvate dehydrogenase (PDH) activity in cell lysates using a commercially available ELISA-based assay kit (Abcam). Results are expressed as a percentage of the PDH reaction rate in DMSO treated cells. D, Jurkat cells ([…]) were pre-treated in RPMI- […]
suspension in glucose-free RPMI-1640 media supplemented with 2 g/L 1,6-13C-D-Glucose followed by kinetic acquisition of 13C-NMR spectra at 10 min intervals. […]

[5] = test system: PC-3 cells; assay: Cell cycle and sub-G1 analysis (PI/FACS); format: cell-based; conditions: PC-3, 20 μM, 48 h
Protocol: PC-3 cells were seeded into 6-well plates at a density of 1×10^5 cells per well. […] Following ethanol fixation and treatment with RNAse (Sigma), cellular DNA was stained with propidium iodide (50 μg/mL). The samples were then acquired on a FACSArray (BD Biosciences) flow cytometer and the data analyzed using FACSDiva software.

[6] = test system: ES-2 cells; assay: Potentiation assay with doxorubicin, ES-2; format: cell-based
Protocol: The cells were then incubated for 120 h followed by cell mass determination using the Sulforhodamine B assay. […] Drug interactions were analyzed by the combination index (CI) method based on the method described by Chou. CI values <0.9 indicates synergism, 0.9 to 1.1 additivity, and >1.1 antagonism. The data was expressed in the form of Fa-CI simulation plot generated using calcusyn software (Biosoft). Potentiation assays were carried out as described previously.

[7] = test system: PC-3 spheroids; assay: Spheroid growth assay (3D culture); format: cell-based; conditions: concentrations of 10 μM and above
Protocol: Compound cytotoxicity was determined using the Sulforhodamine B assay for cells cultured as a monolayer as described previously (45). For spheroid growth experiments, PC-3 cells were seeded (500 cells/well) into 96 well round bottom plates (Corning Costar 7007) in RPMI-1640 media containing 2.5% (w/v) Matrigel (BD Biosciences). […] Spheroid volumes were determined by obtaining diameter measurements from images taken on a Zeiss Axiovert 200M inverted microscope using the axiovision software.

[8] = test system: p(Ser^293)E1α levels in ES-2 cells; assay: Phospho(Ser293) E1α suppression in ES-2 cells; format: cell-based
Protocol: Phospho(Ser^293) E1α MSD ELISA assay: All reagents were purchased from Meso Scale Discovery (Maryland, USA) unless otherwise stated. Following compound treatment, cells were treated with lysis buffer (TBS pH 7.4, 1% Tween-20, 1 mM EGTA, 1 mM EDTA, 1 mM NaF, protease and phosphatase inhibitor cocktails (Roche)) on ice and the lysates added to standard bind 96 well MSD plates which were pre-loaded with custom phospho(Ser^293)E1α ‘capture’ antibody (2 μg/ml in TBST containing 3% (w/v) blocker A) (Genescript) and blocked with 3% (w/v) blocker A, followed by a 1 h incubation at RT. The wells were then washed 3X with TBST (0.05% tween 20) followed by the addition of 2 μg/ml E1α ‘detection’ antibody (2 μg/ml) (Abcam) and a further 1 h incubation at RT. The wells were again washed 3X with TBST followed by the addition of 1 μg/ml Goat anti-mouse Sulfotag antibody, and a further TBST wash prior to the addition of 2X read buffer T. The chemiluminescent signal was then measured on a MSD sector imager 2400.

[9] = biological target: PDK-1 (Homo sapiens, UniProt Q15118); assay: PDK-1 fluorescence polarization assay (fluorescein-labelled ATP site probe); format: binding; design: PDK-1: residues 30-436; made in house; host or cells: E. coli BL21; conditions: fluorescence polarization; mean of n determinations; read-out: PDK-1 FP, IC50
Sequence of PDK-1 (Q15118 30-436): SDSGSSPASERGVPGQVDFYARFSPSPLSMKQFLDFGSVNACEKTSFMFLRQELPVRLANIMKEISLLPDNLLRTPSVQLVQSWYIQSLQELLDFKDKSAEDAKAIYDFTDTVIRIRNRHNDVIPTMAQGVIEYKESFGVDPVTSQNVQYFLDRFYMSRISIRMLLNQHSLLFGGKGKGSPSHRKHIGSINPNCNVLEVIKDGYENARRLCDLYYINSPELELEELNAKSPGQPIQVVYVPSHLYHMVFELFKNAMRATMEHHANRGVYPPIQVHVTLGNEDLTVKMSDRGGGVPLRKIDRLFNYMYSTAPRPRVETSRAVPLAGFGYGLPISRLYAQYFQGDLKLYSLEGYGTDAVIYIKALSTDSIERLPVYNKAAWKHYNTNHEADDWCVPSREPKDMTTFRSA
Protocol: carbamoyl]-2-(6-hydroxy-3-oxo-3H-xanthen-9-yl)benzoic acid), which binds to the ATP site of PDK resulting in an increase in anisotropy.
The HSP-90ß FP assay was conducted as previously described.

Structure (SMILES)	Number of further kinases with ligand binding between 10 and 35% of control [1]	Number of kinases with ligand binding reduced to ≤ 10% of control values [1]	Kinases on the panel with significant or partial binding ([1]; ligand binding reduced to ≤35% of control)	Increase in PDC activity [2]	Reduction in media L-lactate levels ([3]; PC-3, 9 μM, 0.25 g/L D-glucose, 2% dialyzed FCS)	Intracellular pyruvate levels ([3]; PC-3, 20 μM, D-glucose/L-glutamine and serum depleted conditions)	Intracellular pyruvate levels ([3]; PC-3, 20 μM, standard culture conditions)	Extracellular L-alanine levels ([3]; PC-3, 20 μM, standard and low serum culture conditions)	Reduction in media L-lactate levels ([3]; PC-3, 27 μM, 0.25 g/L D-glucose, 2% dialyzed FCS)	Extracellular L-lactate levels ([3]; PC-3, 24 h, 10 and 20 μM, D-glucose/L-glutamine-depleted media)	L-lactate production vs DMSO ([3]; PC-3, 24 h, normal or low serum media)	Effect on D-glucose consumption ([3]; PC-3, same concentrations that reduced L-lactate production (9 and 27 μM))	Effect on glycolytic activity in HFF cells [4]	Cell cycle distribution ([5]; serum-starved conditions)	Apoptosis induction (sub-G1 fraction) ([5]; standard and serum-depleted conditions)	Potentiation of doxorubicin [6]	Reduction in spheroid volume [7]	Sub-maximal suppression of p(Ser^293)E1α levels [8]	Change in media L-lactate levels ([3]; PC-3, all concentrations tested, 0.25 g/L D-glucose, 2% dialyzed FCS)	pIC50 [9]
Cc1cnc(Cl)nc1-c1ccc(N(Cc2ccc(CNC(=O)C(F)F)cc2)C(=O)c2ccc(O)cc2O)cc1 [VER-246608]	seven	one	8%	an increase in PDC activity	21%	marked reduction	no change	further substantial decrease	42%	further reduction	not altered	decreased D-glucose consumption	decrease in extracellular L-lactate and D-glucose levels	increased fraction of cells in the G1 phase	No evidence of apoptosis induction	3 fold	approximately 50%	–	–	–
C[C@@H]1CN(C(=O)[C@](C)(O)C(F)(F)F)[C@@H](C)CN1C(=O)c1ccc(C#N)cc1 [Nov3r, reference compound]	–	–	–	an increase in PDC activity	–	–	–	–	–	–	–	–	did not alter glycolytic activity	–	–	–	–	80%	no change	7.08
